This passage reports inhibition results from patent publication US20070191227A1, “Use of basic amino acids in copper-containing fungicidal formulations” (priority 2003, published 2007).

The test system of this assay is Septoria tritici. The assay can be described thus: Growth assay with Septoria tritici as indicator fungus (photometric). Format: cell-based. As to conditions: Zymoseptoria tritici; active ingredient concentration 1 ppm, individual active ingredient. Here is the method:
Efficacy of Formulations According to the Invention Comprising Copper and a Further Fungicidal Active Ingredient Against Septoria tritici.
A growth assay was carried out with Septoria tritici as indicator fungus. The fungal growth was measured photometrically by the increase in absorption or light scattering as a function of mycelium density. The data were converted into percent growth inhibition, the absorption of the untreated controls being defined as 0% inhibition and that of a killed spore suspension as reference as 100% inhibition.
The expected efficacies of combinations of active ingredients were determined using Colby's formula (Colby, S. R. “Calculating synergistic and antagonistic responses of herbicide combinations”, Weeds, 15, pp. 20-22, 1967) and compared with the observed efficacies.
Colby's formula: E=x+y−x·y/100 • E expected efficacy, expressed in % of the untreated control, when using the mixture of the active ingredients A and B at the concentrations a and b • x efficacy, expressed in % of the untreated control, when using the active ingredient A at the concentration a
y efficacy, expressed in % of the untreated control, when using the active ingredient B at the concentration b

Broadly, the inhibition is the percentage by which the read-out fell short of the control. For `COC(=O)N(OC)c1ccccc1COc1ccn(-c2ccc(Cl)cc2)n1` [II, Pyraclostrobin], the inhibition at 1 ppm was determined as 73%.
